Assay results published in ChEMBL document CHEMBL1201862, “PubChem BioAssay data set” (2004).
Activity calls are given as the source filed them.

What was measured:
Assay type in all cases: functional
[1] = molecular target: T1, Serine/threonine-protein kinase D2 (Homo sapiens, UniProt Q9BZL6);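 also: measured against PRKD2 as one member of a kinome-wide kinase profiling panel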
T1 sequence (Q9BZL6 whole entry): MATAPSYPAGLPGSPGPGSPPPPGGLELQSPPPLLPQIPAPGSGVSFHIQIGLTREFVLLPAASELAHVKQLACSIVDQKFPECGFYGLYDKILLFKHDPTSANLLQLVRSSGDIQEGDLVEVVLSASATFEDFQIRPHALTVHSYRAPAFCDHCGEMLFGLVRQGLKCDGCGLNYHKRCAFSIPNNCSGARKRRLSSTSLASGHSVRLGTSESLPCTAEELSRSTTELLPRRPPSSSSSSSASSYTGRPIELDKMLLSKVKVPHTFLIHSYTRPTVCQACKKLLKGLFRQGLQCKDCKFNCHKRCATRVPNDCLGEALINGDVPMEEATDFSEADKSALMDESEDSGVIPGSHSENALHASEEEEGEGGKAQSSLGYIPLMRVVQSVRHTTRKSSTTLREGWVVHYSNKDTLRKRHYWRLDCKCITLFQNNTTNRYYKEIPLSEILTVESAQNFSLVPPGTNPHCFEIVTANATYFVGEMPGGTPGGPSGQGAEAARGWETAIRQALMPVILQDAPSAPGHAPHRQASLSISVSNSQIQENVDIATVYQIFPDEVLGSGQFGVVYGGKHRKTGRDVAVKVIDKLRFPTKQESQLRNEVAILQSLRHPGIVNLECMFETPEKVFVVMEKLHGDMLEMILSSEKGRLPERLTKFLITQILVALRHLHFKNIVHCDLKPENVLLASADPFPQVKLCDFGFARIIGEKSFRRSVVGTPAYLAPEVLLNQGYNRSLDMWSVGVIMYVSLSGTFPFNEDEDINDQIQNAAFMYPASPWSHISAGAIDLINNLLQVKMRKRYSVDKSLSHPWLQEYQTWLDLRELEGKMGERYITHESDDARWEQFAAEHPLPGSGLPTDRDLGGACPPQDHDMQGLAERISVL

[2] = molecular target: Serine/threonine-protein kinase Chk2 (Homo sapiens, UniProt O96017);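 also: CHEK2 entry within a kinome-wide screening panel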
[3] = molecular target: Hepatocyte growth factor receptor (Homo sapiens, UniProt P08581);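 also: kinase panel profiling across the kinome, with MET as the panel member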
[4] = molecular target: Protein kinase C gamma type (Homo sapiens, UniProt P05129)
[5] = molecular target: T2, cAMP-dependent protein kinase catalytic subunit PRKX (Homo sapiens, UniProt P51817)
T2 sequence (P51817 whole entry): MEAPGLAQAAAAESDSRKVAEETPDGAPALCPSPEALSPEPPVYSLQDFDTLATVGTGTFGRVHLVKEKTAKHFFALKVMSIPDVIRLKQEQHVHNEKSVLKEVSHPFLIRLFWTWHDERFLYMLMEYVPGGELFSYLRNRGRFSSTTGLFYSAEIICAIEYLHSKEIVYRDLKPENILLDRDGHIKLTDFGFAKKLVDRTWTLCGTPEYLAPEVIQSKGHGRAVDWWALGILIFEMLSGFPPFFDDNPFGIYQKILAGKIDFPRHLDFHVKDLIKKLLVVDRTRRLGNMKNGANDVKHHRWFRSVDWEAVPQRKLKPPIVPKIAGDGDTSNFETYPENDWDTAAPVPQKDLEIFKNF

[6] = molecular target: Tyrosine-protein kinase JAK2 (Homo sapiens, UniProt O60674);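 also: JAK2 tested as one member of a kinase panel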
[7] = molecular target: T3, Homeodomain-interacting protein kinase 4 (Homo sapiens, UniProt Q8NE63)
T3 sequence (Q8NE63 whole entry): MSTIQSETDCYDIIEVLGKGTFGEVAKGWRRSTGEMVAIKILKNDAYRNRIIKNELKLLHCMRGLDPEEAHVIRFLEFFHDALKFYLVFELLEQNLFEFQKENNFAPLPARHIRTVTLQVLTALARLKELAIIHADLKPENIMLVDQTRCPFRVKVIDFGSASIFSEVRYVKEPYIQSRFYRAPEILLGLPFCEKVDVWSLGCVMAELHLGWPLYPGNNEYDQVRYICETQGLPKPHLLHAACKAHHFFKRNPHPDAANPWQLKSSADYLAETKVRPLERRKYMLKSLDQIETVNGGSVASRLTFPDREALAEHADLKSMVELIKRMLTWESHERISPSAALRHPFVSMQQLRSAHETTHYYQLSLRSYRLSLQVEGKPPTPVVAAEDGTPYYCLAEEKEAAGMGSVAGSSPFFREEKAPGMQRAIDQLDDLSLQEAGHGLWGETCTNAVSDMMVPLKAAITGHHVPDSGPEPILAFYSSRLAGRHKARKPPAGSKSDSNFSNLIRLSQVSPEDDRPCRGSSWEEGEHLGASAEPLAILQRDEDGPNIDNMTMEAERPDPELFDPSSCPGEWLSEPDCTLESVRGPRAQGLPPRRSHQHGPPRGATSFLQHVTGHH

[8] = molecular target: Proto-oncogene tyrosine-protein kinase receptor Ret (Homo sapiens, UniProt P07949);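 also: measured within a kinome-wide profiling panel, RET as the panel member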
[9] = molecular target: Death-associated protein kinase 3 (Homo sapiens, UniProt O43293);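 also: measured as one member of a kinome-wide profiling panel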
[10] = molecular target: Rho-associated protein kinase 1 (Homo sapiens, UniProt Q13464);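 also: measured within a broad kinome-wide panel profiling many kinases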
[11] = molecular target: Serine/threonine-protein kinase D3 (Homo sapiens, UniProt O94806);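 also: determined within a kinase panel screen, with PRKCN as the panel member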
Sequence of Serine/threonine-protein kinase D3 (O94806 whole entry): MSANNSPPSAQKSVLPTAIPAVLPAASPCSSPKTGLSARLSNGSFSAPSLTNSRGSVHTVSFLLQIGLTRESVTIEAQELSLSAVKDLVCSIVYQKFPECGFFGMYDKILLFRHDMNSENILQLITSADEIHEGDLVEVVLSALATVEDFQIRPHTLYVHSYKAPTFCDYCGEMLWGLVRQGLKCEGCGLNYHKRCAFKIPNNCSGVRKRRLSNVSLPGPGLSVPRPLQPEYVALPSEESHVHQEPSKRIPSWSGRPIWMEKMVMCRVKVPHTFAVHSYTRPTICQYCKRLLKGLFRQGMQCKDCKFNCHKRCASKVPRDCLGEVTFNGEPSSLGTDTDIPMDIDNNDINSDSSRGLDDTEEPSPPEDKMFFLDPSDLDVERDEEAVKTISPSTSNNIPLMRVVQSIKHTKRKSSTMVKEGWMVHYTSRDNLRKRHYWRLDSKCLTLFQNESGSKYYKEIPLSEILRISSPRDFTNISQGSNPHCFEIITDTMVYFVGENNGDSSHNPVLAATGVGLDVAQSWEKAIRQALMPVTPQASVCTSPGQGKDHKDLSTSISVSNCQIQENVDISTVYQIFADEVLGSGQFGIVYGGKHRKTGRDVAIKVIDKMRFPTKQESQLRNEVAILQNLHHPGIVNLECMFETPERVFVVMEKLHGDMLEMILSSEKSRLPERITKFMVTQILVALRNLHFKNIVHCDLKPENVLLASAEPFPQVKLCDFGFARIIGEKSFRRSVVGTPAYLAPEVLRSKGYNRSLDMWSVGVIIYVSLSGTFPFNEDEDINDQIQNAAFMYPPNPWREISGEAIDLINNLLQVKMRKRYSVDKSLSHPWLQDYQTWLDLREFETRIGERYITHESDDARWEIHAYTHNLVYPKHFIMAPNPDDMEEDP

Sequence of Tyrosine-protein kinase JAK2 (O60674 whole entry): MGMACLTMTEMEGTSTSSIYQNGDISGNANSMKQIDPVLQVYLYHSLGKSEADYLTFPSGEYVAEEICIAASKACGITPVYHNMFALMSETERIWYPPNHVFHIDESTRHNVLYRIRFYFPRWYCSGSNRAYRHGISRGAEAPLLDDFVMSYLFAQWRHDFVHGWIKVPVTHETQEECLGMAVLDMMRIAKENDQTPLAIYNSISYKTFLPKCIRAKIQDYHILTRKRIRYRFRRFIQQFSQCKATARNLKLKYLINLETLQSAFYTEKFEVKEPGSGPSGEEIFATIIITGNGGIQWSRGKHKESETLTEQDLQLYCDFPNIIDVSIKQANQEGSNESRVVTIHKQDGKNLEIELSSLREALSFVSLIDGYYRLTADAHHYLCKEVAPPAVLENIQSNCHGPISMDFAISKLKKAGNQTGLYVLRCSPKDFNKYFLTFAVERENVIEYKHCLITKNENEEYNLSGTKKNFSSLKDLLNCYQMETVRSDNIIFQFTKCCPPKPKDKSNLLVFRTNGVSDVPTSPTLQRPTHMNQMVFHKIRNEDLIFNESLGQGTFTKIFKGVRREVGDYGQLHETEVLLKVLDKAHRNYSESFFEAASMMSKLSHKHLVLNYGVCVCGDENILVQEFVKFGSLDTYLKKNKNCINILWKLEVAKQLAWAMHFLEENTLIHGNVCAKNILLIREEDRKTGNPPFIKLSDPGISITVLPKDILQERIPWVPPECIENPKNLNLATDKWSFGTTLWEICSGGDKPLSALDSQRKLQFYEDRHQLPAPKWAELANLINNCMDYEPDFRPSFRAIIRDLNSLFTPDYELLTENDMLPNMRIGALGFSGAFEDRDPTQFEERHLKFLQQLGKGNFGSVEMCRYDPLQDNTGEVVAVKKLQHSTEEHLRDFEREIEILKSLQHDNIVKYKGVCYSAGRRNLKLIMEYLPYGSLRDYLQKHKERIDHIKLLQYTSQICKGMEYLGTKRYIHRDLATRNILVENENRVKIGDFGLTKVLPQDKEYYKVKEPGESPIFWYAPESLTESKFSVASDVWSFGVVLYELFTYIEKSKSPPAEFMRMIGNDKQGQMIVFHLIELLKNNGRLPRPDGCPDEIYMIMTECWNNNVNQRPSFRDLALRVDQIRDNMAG
Sequence of Serine/threonine-protein kinase Chk2 (O96017 whole entry): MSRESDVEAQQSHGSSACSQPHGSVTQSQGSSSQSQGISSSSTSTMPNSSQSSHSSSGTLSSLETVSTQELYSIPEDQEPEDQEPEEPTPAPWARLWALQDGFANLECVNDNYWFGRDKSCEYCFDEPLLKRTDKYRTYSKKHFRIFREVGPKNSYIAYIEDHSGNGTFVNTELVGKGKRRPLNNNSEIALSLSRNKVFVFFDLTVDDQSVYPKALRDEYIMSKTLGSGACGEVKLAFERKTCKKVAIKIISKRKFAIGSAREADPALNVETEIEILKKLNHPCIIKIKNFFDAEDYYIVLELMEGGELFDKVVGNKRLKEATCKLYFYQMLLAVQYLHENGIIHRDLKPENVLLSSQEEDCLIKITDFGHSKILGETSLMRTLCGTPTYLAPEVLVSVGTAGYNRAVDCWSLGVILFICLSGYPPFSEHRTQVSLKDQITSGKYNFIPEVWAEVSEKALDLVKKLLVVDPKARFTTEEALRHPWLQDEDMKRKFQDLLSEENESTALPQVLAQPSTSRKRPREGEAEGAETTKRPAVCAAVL
Sequence of Death-associated protein kinase 3 (O43293 whole entry): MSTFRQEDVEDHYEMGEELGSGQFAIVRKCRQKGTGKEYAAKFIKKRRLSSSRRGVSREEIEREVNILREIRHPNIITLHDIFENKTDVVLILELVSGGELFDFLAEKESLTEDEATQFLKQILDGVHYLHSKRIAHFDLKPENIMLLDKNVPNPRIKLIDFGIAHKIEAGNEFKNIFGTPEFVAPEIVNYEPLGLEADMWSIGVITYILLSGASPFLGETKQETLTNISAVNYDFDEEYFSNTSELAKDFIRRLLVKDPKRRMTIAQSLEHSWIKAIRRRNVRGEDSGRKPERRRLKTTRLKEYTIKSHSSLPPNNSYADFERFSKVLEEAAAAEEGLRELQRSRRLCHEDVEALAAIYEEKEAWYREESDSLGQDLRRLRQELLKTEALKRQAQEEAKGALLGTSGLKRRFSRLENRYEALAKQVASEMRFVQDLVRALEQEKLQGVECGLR
Sequence of Rho-associated protein kinase 1 (Q13464 whole entry): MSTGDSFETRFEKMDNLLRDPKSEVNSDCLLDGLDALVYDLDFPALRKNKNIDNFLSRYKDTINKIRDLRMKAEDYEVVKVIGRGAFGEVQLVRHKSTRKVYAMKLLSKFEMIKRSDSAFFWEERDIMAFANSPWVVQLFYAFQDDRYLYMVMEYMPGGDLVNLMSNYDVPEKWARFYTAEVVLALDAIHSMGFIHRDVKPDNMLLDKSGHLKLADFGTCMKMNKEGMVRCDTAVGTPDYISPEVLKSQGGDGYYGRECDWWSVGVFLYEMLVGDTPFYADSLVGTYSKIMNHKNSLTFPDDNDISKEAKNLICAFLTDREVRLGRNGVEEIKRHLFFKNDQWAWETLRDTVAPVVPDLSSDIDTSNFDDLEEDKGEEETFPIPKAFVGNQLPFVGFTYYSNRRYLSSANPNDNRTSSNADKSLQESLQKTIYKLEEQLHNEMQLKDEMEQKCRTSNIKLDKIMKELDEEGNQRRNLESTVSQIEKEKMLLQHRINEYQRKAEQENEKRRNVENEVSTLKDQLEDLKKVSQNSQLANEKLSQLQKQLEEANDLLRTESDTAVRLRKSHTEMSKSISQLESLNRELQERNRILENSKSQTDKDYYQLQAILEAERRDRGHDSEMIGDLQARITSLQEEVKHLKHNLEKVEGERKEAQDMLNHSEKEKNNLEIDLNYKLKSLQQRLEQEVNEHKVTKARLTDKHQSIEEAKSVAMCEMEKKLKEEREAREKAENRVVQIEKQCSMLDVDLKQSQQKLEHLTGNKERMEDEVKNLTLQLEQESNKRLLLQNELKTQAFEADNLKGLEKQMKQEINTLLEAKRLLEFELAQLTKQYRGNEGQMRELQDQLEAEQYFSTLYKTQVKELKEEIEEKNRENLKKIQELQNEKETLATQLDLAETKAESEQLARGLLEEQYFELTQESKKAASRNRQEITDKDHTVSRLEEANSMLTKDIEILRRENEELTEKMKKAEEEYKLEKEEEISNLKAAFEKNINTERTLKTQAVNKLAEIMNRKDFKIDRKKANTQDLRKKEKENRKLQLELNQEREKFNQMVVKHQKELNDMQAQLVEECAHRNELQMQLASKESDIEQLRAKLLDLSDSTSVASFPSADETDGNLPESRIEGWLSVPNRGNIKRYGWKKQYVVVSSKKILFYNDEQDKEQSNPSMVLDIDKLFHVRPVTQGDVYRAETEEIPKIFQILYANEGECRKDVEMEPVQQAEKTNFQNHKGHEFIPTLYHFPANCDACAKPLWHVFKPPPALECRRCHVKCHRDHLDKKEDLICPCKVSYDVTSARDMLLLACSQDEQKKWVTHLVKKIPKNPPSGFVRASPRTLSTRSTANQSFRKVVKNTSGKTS

Ki [1] | pKi [1] | Ki [2] | pKi [2] | Ki [3] | Ki [4] | pKi [4] | Ki [5] | pKi [5] | Ki [6] | pKi [6] | Ki [7] | pKi [7] | Ki [8] | Ki [10] | pKi [10] | SMILES | Ki [9] | pKi [9] | Ki [11]
316 nM (active) | 6.5 | 1260 nM (active) | 5.9 | > 2510 nM (inactive) | 251 nM (active) | 6.6 | 1000 nM (active) | 6 | 20 nM (active) | 7.7 | 398 nM (active) | 6.4 | > 1260 nM (inactive) | 126 nM (active) | 6.9 | NC(=O)c1cc(-c2ccnc(N)n2)[nH]c1-c1ccc(Cl)cc1Cl | 398 nM (active) | 6.4 | –
15.8 nM (active) | – | 50.1 nM (active) | – | > 3160 nM (inactive) | 31.6 nM (active) | – | 7.94 nM (active) | – | 316 nM (active) | – | 63.1 nM (active) | – | 50.1 nM (active) | 31.6 nM (active) | – | NC(COc1cncc(-c2ccc3c(c2)C(=Cc2ccco2)C(=O)N3)c1)Cc1c[nH]c2ccccc12 (stereo not given) | 20 nM (active) | – | 6.31 nM (active)
– | – | – | – | – | – | – | – | – | – | – | – | – | – | – | – | Cc1ccc(-n2nc(C(C)(C)C)cc2NC(=O)Nc2ccc(OCCN3CCOCC3)c3ccccc23)cc1 [DORAMAPIMOD] | – | – | > 3980 nM (inactive)
